This is an account of results in ChEMBL document CHEMBL6121054, “Discovery of Metabolic Reprogramming 2-Quinolones as Effective Antimicrobials for MRSA-Infected Wound Therapy” (J Med Chem, 2025).

Values after ≈ are worked out from the molar mass of the structure shown.

Holding throughout (assay type): functional
In assay [1] the test system is Staphylococcus aureus. The experiment in a line: Antibacterial activity against Staphylococcus aureus USA300 incubated for 16 to 24 hrs by broth microdilution method. The note with it: time 16-24 hrs. On the technique in general: In broth dilution the organism is exposed to a series of concentrations in liquid medium.
Assay [2] concerns Staphylococcus aureus. Kind of assay: Antibacterial activity against Staphylococcus aureus USA400 incubated for 16 to 24 hrs by broth microdilution method. The following applies: time 16-24 hrs.
Assay [3] has as its system Staphylococcus aureus. Kind of assay: Antibacterial activity against Staphylococcus aureus DU1090 incubated for 16 to 24 hrs by broth microdilution method. The note with it: time 16-24 hrs.
Assay [4] relates to Staphylococcus aureus. The experiment in a line: Antibacterial activity against Staphylococcus aureus NCTC 8325-4 incubated for 16 to 24 hrs by broth microdilution method. The following applies: time 16-24 hrs.
Assay [5] relates to Staphylococcus aureus. The experiment in a line: Antibacterial activity against Staphylococcus aureus ATCC 25923 incubated for 16 to 24 hrs by broth microdilution method. The note with it: time 16-24 hrs.
The test system of assay [6] is Staphylococcus aureus. Kind of assay: Antibacterial activity against Staphylococcus aureus ATCC 25904 incubated for 16 to 24 hrs by broth microdilution method. The note with it: time 16-24 hrs.
The test system of assay [7] is Staphylococcus aureus. The experiment in a line: Antibacterial activity against Staphylococcus aureus ATCC 29213 incubated for 16 to 24 hrs by broth microdilution method. The note with it: time 16-24 hrs.
Assay [8] has as its system Listeria monocytogenes. The experiment in a line: Antibacterial activity against Listeria monocytogenes EGD incubated for 16 to 24 hrs by broth microdilution method. The following applies: time 16-24 hrs.
Assay [9] deals with Listeria monocytogenes. Kind of assay: Antibacterial activity against Listeria monocytogenes ATCC 19115 incubated for 16 to 24 hrs by broth microdilution method. The following applies: time 16-24 hrs.
Assay [10] deals with Staphylococcus aureus. Kind of assay: Antibacterial activity against methicillin-resistant Staphylococcus aureus MRSA 2 incubated for 16 to 24 hrs by broth microdilution method. The following applies: time 16-24 hrs.
The subject of another assay is Streptococcus suis. The experiment in a line: Antibacterial activity against Streptococcus suis ZY05719 incubated for 16 to 24 hrs by broth microdilution method. The note with it: time 16-24 hrs.
In assay [11] the test system is Staphylococcus aureus. Kind of assay: Antibacterial activity against methicillin-resistant Staphylococcus aureus MRSA 1 incubated for 16 to 24 hrs by broth microdilution method.
The test system of assay [12] is Staphylococcus aureus. The experiment in a line: Induction of resistance development in Staphylococcus aureus USA300 assessed as fold increase in MIC incubated for 24 hrs measured after 14 passages by broth microdilution method.
Where [13] appears, read: Staphylococcus aureus, MRSA 1, time 16-24 hrs, read-out: MIC.

On to `CCn1c(=O)c(C(=O)Nc2nnc(-c3ccc(C(F)(F)F)cn3)s2)c(O)c2ccccc21`, for which the MIC in the assay with Staphylococcus aureus [1] is 4.67 µg/mL (≈ 10.1 µM); against Staphylococcus aureus [2] it was 6.67 µg/mL (≈ 14.5 µM); against Staphylococcus aureus [3], 0.96 µg/mL (≈ 2.08 µM); in the assay on Staphylococcus aureus [4], over 8 µg/mL; against Staphylococcus aureus [5], 5.33 µg/mL (≈ 11.6 µM); in the assay with Staphylococcus aureus [6], 3.42 µg/mL (≈ 7.41 µM). Moreover, the MIC was over 8 µg/mL in the assay with Staphylococcus aureus [7], 0.21 µg/mL (≈ 0.455 µM) in the assay on Listeria monocytogenes [8] and 0.29 µg/mL (≈ 0.628 µM) with Listeria monocytogenes [9].
Consider `CCn1c(=O)c(C(=O)Nc2nnc(-c3ccc(F)cn3)s2)c(O)c2ccccc21`, for which the MIC stood at 0.46 µg/mL (≈ 1.12 µM) against Staphylococcus aureus [1]; 1.29 µg/mL (≈ 3.14 µM) in the assay with Staphylococcus aureus [2]; 0.5 µg/mL (≈ 1.22 µM) against Staphylococcus aureus [3]; 1.25 µg/mL (≈ 3.04 µM) in the assay on Staphylococcus aureus [4]; 0.46 µg/mL (≈ 1.12 µM) against Staphylococcus aureus [5]; 0.48 µg/mL (≈ 1.17 µM) against Staphylococcus aureus [6]. Besides, the MIC against Staphylococcus aureus [7] was determined as 0.67 µg/mL (≈ 1.63 µM); in the assay on Listeria monocytogenes [8], 0.49 µg/mL (≈ 1.19 µM); against Listeria monocytogenes [9], 0.5 µg/mL (≈ 1.22 µM).
Take `CCn1c(=O)c(C(=O)Nc2nnc(-c3cc(C)ccn3)s2)c(O)c2ccccc21`: the MIC in the assay on Staphylococcus aureus [1] turned out to be 0.14 µg/mL (≈ 0.344 µM); in the assay on Staphylococcus aureus [2], 0.14 µg/mL (≈ 0.344 µM); in the assay with Staphylococcus aureus [3], 0.12 µg/mL (≈ 0.295 µM); in the assay on Staphylococcus aureus [4] it was 0.1 µg/mL (≈ 0.245 µM); with Staphylococcus aureus [5] it was 0.15 µg/mL (≈ 0.368 µM); against Staphylococcus aureus [6] it was 0.19 µg/mL (≈ 0.466 µM). Moreover, the MIC in the assay with Staphylococcus aureus [7] was found to be 0.18 µg/mL (≈ 0.442 µM); against Listeria monocytogenes [8], 0.16 µg/mL (≈ 0.393 µM); with Listeria monocytogenes [9] it was 0.49 µg/mL (≈ 1.2 µM).
Take `CN(C)c1cc(NC(=O)CNC(C)(C)C)c(O)c2c1C[C@H]1C[C@H]3[C@H](N(C)C)C(O)=C(C(N)=O)C(=O)[C@@]3(O)C(O)=C1C2=O` [TIGECYCLINE]: the MIC against Staphylococcus aureus [1] was 0.16 µg/mL (≈ 0.273 µM); with Staphylococcus aureus [2], 0.19 µg/mL (≈ 0.324 µM); against Staphylococcus aureus [3] it was 0.23 µg/mL (≈ 0.393 µM); in the assay with Staphylococcus aureus [4], 0.27 µg/mL (≈ 0.461 µM); against Staphylococcus aureus [5], 0.92 µg/mL (≈ 1.57 µM); with Staphylococcus aureus [6] it was 0.83 µg/mL (≈ 1.42 µM). Also, the MIC against Staphylococcus aureus [7] is 0.1 µg/mL (≈ 0.171 µM); with Listeria monocytogenes [9], 0.2 µg/mL (≈ 0.341 µM); against Staphylococcus aureus [10] it was 0.54 µg/mL (≈ 0.922 µM); in the assay with Streptococcus suis, 0.07 µg/mL (≈ 0.12 µM).
Regarding `CCn1c(=O)c(C(=O)Nc2nnc(-c3ccc(Br)cn3)s2)c(O)c2ccccc21`, the MIC came out at 0.06 µg/mL (≈ 0.127 µM) in the assay with Staphylococcus aureus [1]; 0.07 µg/mL (≈ 0.148 µM) with Staphylococcus aureus [2]; 0.05 µg/mL (≈ 0.106 µM) against Staphylococcus aureus [3]; 0.27 µg/mL (≈ 0.572 µM) against Staphylococcus aureus [4]; 0.2 µg/mL (≈ 0.423 µM) in the assay on Staphylococcus aureus [5]; 0.19 µg/mL (≈ 0.402 µM) in the assay on Staphylococcus aureus [6]. In addition, the MIC with Staphylococcus aureus [7] came to 1.13 µg/mL (≈ 2.39 µM); against Listeria monocytogenes [8], 0.06 µg/mL (≈ 0.127 µM); against Listeria monocytogenes [9] it was 0.05 µg/mL (≈ 0.106 µM).
With `CNC(C)[C@@H]1CC[C@@H](N)[C@@H](O[C@H]2[C@H](O)[C@@H](O[C@H]3OC[C@](C)(O)[C@H](NC)[C@H]3O)[C@H](N)C[C@@H]2N)O1.CN[C@@H]1[C@@H](O)[C@@H](O[C@@H]2[C@@H](O)[C@H](O[C@H]3O[C@H](C(C)N)CC[C@H]3N)[C@@H](N)C[C@H]2N)OC[C@]1(C)O.CN[C@@H]1[C@@H](O)[C@@H](O[C@@H]2[C@@H](O)[C@H](O[C@H]3O[C@H](CN)CC[C@H]3N)[C@@H](N)C[C@H]2N)OC[C@]1(C)O` (some centres not stated), the MIC was 4 µg/mL against Staphylococcus aureus [1]; 3.67 µg/mL in the assay with Staphylococcus aureus [2]; 1.54 µg/mL with Staphylococcus aureus [3]; 5.33 µg/mL in the assay with Staphylococcus aureus [4]; 2.67 µg/mL against Staphylococcus aureus [5]; over 4 µg/mL in the assay with Staphylococcus aureus [6]. In addition, the MIC was 3 µg/mL against Staphylococcus aureus [7]; 6 µg/mL against Listeria monocytogenes [9]; over 4 µg/mL with Staphylococcus aureus [11] (setting [13]); 5.33 µg/mL against Staphylococcus aureus [11] (time 16-24 hrs); over 4 µg/mL in the assay with Staphylococcus aureus [10]; 6 µg/mL with Streptococcus suis.
In the case of `CCn1c(=O)c(C(=O)Nc2nnc(-c3ncccc3C)s2)c(O)c2ccccc21`, the MIC in the assay on Staphylococcus aureus [1], with Staphylococcus aureus [2], against Staphylococcus aureus [3], with Staphylococcus aureus [4], against Staphylococcus aureus [5] and with Staphylococcus aureus [6] was over 8 µg/mL each time. In addition, the MIC in the assay on Staphylococcus aureus [7], with Listeria monocytogenes [8] and in the assay on Listeria monocytogenes [9] was over 8 µg/mL each time.
In the case of `CCn1c(=O)c(C(=O)Nc2nnc(-c3ncccc3F)s2)c(O)c2ccccc21`, the MIC against Staphylococcus aureus [1] stood at 0.11 µg/mL (≈ 0.267 µM); in the assay on Staphylococcus aureus [2], 0.17 µg/mL (≈ 0.413 µM); in the assay on Staphylococcus aureus [3], 0.1 µg/mL (≈ 0.243 µM); against Staphylococcus aureus [4], 0.1 µg/mL (≈ 0.243 µM); against Staphylococcus aureus [5], 0.15 µg/mL (≈ 0.365 µM); against Staphylococcus aureus [6], 0.08 µg/mL (≈ 0.194 µM). For the same compound, the MIC against Staphylococcus aureus [7] was found to be 0.14 µg/mL (≈ 0.34 µM); in the assay on Listeria monocytogenes [8], 0.17 µg/mL (≈ 0.413 µM); with Listeria monocytogenes [9] it was 0.2 µg/mL (≈ 0.486 µM).
On to `CN[C@H](CC(C)C)C(=O)N[C@H]1C(=O)N[C@@H](CC(N)=O)C(=O)N[C@H]2C(=O)N[C@H]3C(=O)N[C@H](C(=O)N[C@H](C(=O)O)c4cc(O)cc(O)c4-c4cc3ccc4O)[C@H](O)c3ccc(c(Cl)c3)Oc3cc2cc(c3O[C@@H]2O[C@H](CO)[C@@H](O)[C@H](O)[C@H]2O[C@H]2C[C@](C)(N)[C@H](O)[C@H](C)O2)Oc2ccc(cc2Cl)[C@H]1O` [VANCOMYCIN], for which the MIC with Staphylococcus aureus [1] was 2.33 µg/mL (≈ 1.61 µM); in the assay on Staphylococcus aureus [2], 2.5 µg/mL (≈ 1.73 µM); against Staphylococcus aureus [3], 1.67 µg/mL (≈ 1.15 µM); against Staphylococcus aureus [4] it was 1.83 µg/mL (≈ 1.26 µM); against Staphylococcus aureus [5], 2.67 µg/mL (≈ 1.84 µM); with Staphylococcus aureus [6], 3 µg/mL (≈ 2.07 µM). The MIC stood at 1.71 µg/mL (≈ 1.18 µM) in the assay with Staphylococcus aureus [7]; 1.83 µg/mL (≈ 1.26 µM) in the assay on Listeria monocytogenes [9]; 2.33 µg/mL (≈ 1.61 µM) with Staphylococcus aureus [11] (setting [13]); 1.33 µg/mL (≈ 0.918 µM) in the assay on Staphylococcus aureus [11] (time 16-24 hrs); 1.33 µg/mL (≈ 0.918 µM) in the assay on Staphylococcus aureus [10]; 0.15 µg/mL (≈ 0.104 µM) in the assay on Streptococcus suis. In addition, the “fold change (FC)” value with Staphylococcus aureus [12] came to 16.
Consider `CCn1c(=O)c(C(=O)Nc2nnc(-c3cccc(C)n3)s2)c(O)c2ccccc21`, for which the MIC is 0.17 µg/mL (≈ 0.417 µM) against Staphylococcus aureus [1]; 0.08 µg/mL (≈ 0.196 µM) in the assay on Staphylococcus aureus [2]; 0.02 µg/mL (≈ 0.0491 µM) against Staphylococcus aureus [3]; 0.05 µg/mL (≈ 0.123 µM) in the assay on Staphylococcus aureus [4]; 0.04 µg/mL (≈ 0.0982 µM) against Staphylococcus aureus [5]; 0.04 µg/mL (≈ 0.0982 µM) in the assay with Staphylococcus aureus [6]. For the same compound, the figures for the MIC in the assay with Staphylococcus aureus [7], in the assay on Listeria monocytogenes [8] and against Listeria monocytogenes [9] were 0.2 µg/mL (≈ 0.491 µM), 0.02 µg/mL (≈ 0.0491 µM) and 0.02 µg/mL (≈ 0.0491 µM), respectively.
In the case of `CC1(C)S[C@H]([C@H](NC(=O)Cc2ccccc2)C(=O)NCc2ccccc2)N[C@H]1C(=O)N[C@H](Cc1ccccc1)[C@H](O)CC(=O)NCc1nc2ccccc2[nH]1`, the MIC with Staphylococcus aureus [1], against Staphylococcus aureus [2], in the assay with Staphylococcus aureus [3], against Staphylococcus aureus [4], against Staphylococcus aureus [5] and with Staphylococcus aureus [6] was 0.63 µg/mL (≈ 0.827 µM) each time. The MIC against Staphylococcus aureus [7], against Listeria monocytogenes [8] and against Listeria monocytogenes [9] was 0.63 µg/mL (≈ 0.827 µM) each time.

One may read the MIC as the lowest concentration found to suppress growth.
